Experimental data as given in PubChem BioAssay AID330 (DTP/NCI, 2004).
Several values for one entry are separate records, joined by “and”; a condition that tells them apart may be missing. Equal entries are not always repeated. Inconclusive results and toxic doses are left out. Rule for the calls: active = survival T/C of 150% or more; inactive = T/C below 125% in these data.

Tested on: P388 leukemia ip, CD2F1 mice, survival T/C
Assay: NCI In Vivo Anticancer Drug Screen. Data for tumor model P388 Leukemia (intraperitoneal) in CD2F1 (CDF1) mice
Conditions: endpoint: median survival time, higher = longer survival
Summary of the method: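 Mice carrying the transplanted tumor received test compound or vehicle. Survival was recorded in each group, and the value is the treated-group measurement divided by that of the vehicle-treated control group.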

[1] = dose: 50.0 mg/kg/injection, schedule: Q04DX003 (ip), vehicle: saline with Tween-80
[2] = dose: 100.0 mg/kg/injection, schedule: Q04DX003 (ip), vehicle: saline with Tween-80
[3] = dose: 50.0 mg/kg/injection, schedule: Q01DX009 (ip), vehicle: saline with Tween-80
[4] = dose: 100.0 mg/kg/injection, schedule: Q01DX009 (ip), vehicle: saline with Tween-80
[5] = dose: 50.0 mg/kg/injection, schedule: Q04DX003 (ip), vehicle: Klucel (hydroxypropylcellulose) (HPC)
[6] = dose: 100.0 mg/kg/injection, schedule: Q04DX003 (ip), vehicle: Klucel (hydroxypropylcellulose) (HPC)
[7] = dose: 200.0 mg/kg/injection, schedule: Q04DX003 (ip), vehicle: Klucel (hydroxypropylcellulose) (HPC)
[8] = dose: 25.0 mg/kg/injection, schedule: Q01DX009 (ip), vehicle: Klucel (hydroxypropylcellulose) (HPC)
[9] = dose: 50.0 mg/kg/injection, schedule: Q01DX009 (ip), vehicle: Klucel (hydroxypropylcellulose) (HPC)
[10] = dose: 100.0 mg/kg/injection, schedule: Q01DX009 (ip), vehicle: Klucel (hydroxypropylcellulose) (HPC)
[11] = dose: 200.0 mg/kg/injection, schedule: Q01DX009 (ip), vehicle: Klucel (hydroxypropylcellulose) (HPC)
[12] = dose: 50.0 mg/kg/injection, schedule: Q01DX009 (ip), vehicle: saline
[13] = dose: 12.5 mg/kg/injection, schedule: Q01DX009 (ip), vehicle: saline
[14] = dose: 50.0 mg/kg/injection, schedule: Q01DX005 (ip), vehicle: saline with Tween-80
[15] = dose: 100.0 mg/kg/injection, schedule: Q01DX005 (ip), vehicle: saline with Tween-80
[16] = dose: 200.0 mg/kg/injection, schedule: Q01DX005 (ip), vehicle: saline with Tween-80
[17] = dose: 25.0 mg/kg/injection, schedule: Q01DX009 (ip), vehicle: saline

Measured: T/C

O=C(C=C(C(F)(F)F)C(F)(F)F)c1ccc(C(=O)C=C(C(F)(F)F)C(F)(F)F)cc1
inactive: [1] 118 % of control | [2] 100 % of control

C/C([O-])=N/c1n[n+](-c2ccc(Cl)cc2)no1
inactive: dose: 3.12 mg/kg/injection, schedule: Q01DX009 (ip), vehicle: other 98 % of control | dose: 6.25 mg/kg/injection, schedule: Q01DX009 (ip), vehicle: other 100 % of control | dose: 12.5 mg/kg/injection, schedule: Q01DX009 (ip), vehicle: other 103 % of control | dose: 25.0 mg/kg/injection, schedule: Q01DX009 (ip), vehicle: other 101 % of control | dose: 50.0 mg/kg/injection, schedule: Q01DX009 (ip), vehicle: other 112 % of control | dose: 100.0 mg/kg/injection, schedule: Q01DX009 (ip), vehicle: other 112 % of control

O=C(Nc1ccc(Cl)cc1)OCC12COCN1COC2
inactive: [3] 87 % of control | [4] 95 % of control

CC1CC=C(C(=O)N2CCOCC2)C1 (stereo not drawn)
inactive: [5] 103 % of control | [6] 105 % of control | [7] 101 % of control

Cc1cccc(Nc2nc(C)nc3[nH]cc(C)c23)c1
inactive: dose: 50.0 mg/kg/injection, schedule: Q01DX005 (ip), vehicle: Klucel (hydroxypropylcellulose) (HPC) 92 % of control | dose: 100.0 mg/kg/injection, schedule: Q01DX005 (ip), vehicle: Klucel (hydroxypropylcellulose) (HPC) 90 % of control

CCCCNC(=O)N1C2C3CCC(C)(OC3(C)C)C21 (stereo not drawn)
inactive: dose: 50.0 mg/kg/injection, schedule: Q01DX005 (ip), vehicle: saline 101 % of control | dose: 100.0 mg/kg/injection, schedule: Q01DX005 (ip), vehicle: saline 101 % of control | dose: 200.0 mg/kg/injection, schedule: Q01DX005 (ip), vehicle: saline 102 % of control

N#C[S-].N#C[S-].[Au+3].[Au+3].[CH3-].[CH3-].[CH3-].[CH3-]
inactive: [1] 100 % of control | [2] 120 % of control

C=C=CCC(=O)N1CCCC1
inactive: dose: 50.0 mg/kg/injection, schedule: Q04DX002 (ip), vehicle: saline with Tween-80 99 % of control | dose: 100.0 mg/kg/injection, schedule: Q04DX002 (ip), vehicle: saline with Tween-80 101 % of control | dose: 200.0 mg/kg/injection, schedule: Q04DX002 (ip), vehicle: saline with Tween-80 104 % of control

COC(=O)C1=NNC(C(=O)OC)=C(c2ccccc2)C(c2ccccc2)=N1
inactive: [8] 89 % of control | [9] 90 % of control | [10] 93 % of control | [11] 98 % of control | dose: 400.0 mg/kg/injection, schedule: Q01DX009 (ip), vehicle: Klucel (hydroxypropylcellulose) (HPC) 106 % of control

C/C(=C\C=C/c1ccoc1)C(=O)c1cc(C)co1
inactive: dose: 6.25 mg/kg/injection, schedule: Q01DX009 (ip), vehicle: Klucel (hydroxypropylcellulose) (HPC) 106 % of control | dose: 12.5 mg/kg/injection, schedule: Q01DX009 (ip), vehicle: Klucel (hydroxypropylcellulose) (HPC) 103 % of control and 95 % of control | [8] 106 % of control and 96 % of control | [9] 115 % of control and 96 % of control | [10] 104 % of control

CC(C)OC(=O)C1(N)CCCC1
inactive: [12] 97 % of control | dose: 100.0 mg/kg/injection, schedule: Q01DX009 (ip), vehicle: saline 87 % of control | dose: 100.0 mg/kg/injection, schedule: Q04DX003 (ip), vehicle: saline 95 % of control | dose: 200.0 mg/kg/injection, schedule: Q04DX003 (ip), vehicle: saline 104 % of control

C[n+]1c(-c2cccc3ccccc23)c2cc(N)ccc2c2ccccc21
inactive: dose: 0.78 mg/kg/injection, schedule: Q01DX009 (ip), vehicle: water 110 % of control | dose: 1.56 mg/kg/injection, schedule: Q01DX009 (ip), vehicle: saline 103 % of control and 113 % of control | dose: 1.56 mg/kg/injection, schedule: Q01DX009 (ip), vehicle: water 119 % of control | dose: 3.12 mg/kg/injection, schedule: Q01DX009 (ip), vehicle: saline 105 % of control | dose: 6.25 mg/kg/injection, schedule: Q01DX009 (ip), vehicle: saline 112 % of control and 122 % of control | dose: 12.0 mg/kg/injection, schedule: Q01DX009 (ip), vehicle: water 110 % of control | [13] 117 % of control and 121 % of control

c1ccc(C2OCCN2c2ccccc2)cc1 (stereo not drawn)
inactive: dose: 12.5 mg/kg/injection, schedule: Q01DX001 (ip), vehicle: saline with Tween-80 107 % of control | dose: 25.0 mg/kg/injection, schedule: Q01DX001 (ip), vehicle: saline with Tween-80 107 % of control | dose: 50.0 mg/kg/injection, schedule: Q01DX001 (ip), vehicle: saline with Tween-80 107 % of control | dose: 100.0 mg/kg/injection, schedule: Q01DX001 (ip), vehicle: saline with Tween-80 101 % of control

O=c1c2cc(O)ccc2sc2c(CO)ccc(NCCN3CCCC3)c12
inactive: dose: 19.25 mg/kg/injection, schedule: Q01DX005 (ip), vehicle: Klucel (hydroxypropylcellulose) (HPC) 101 % of control | dose: 38.5 mg/kg/injection, schedule: Q01DX005 (ip), vehicle: Klucel (hydroxypropylcellulose) (HPC) 100 % of control | dose: 77.0 mg/kg/injection, schedule: Q01DX005 (ip), vehicle: Klucel (hydroxypropylcellulose) (HPC) 106 % of control | dose: 154.0 mg/kg/injection, schedule: Q01DX005 (ip), vehicle: Klucel (hydroxypropylcellulose) (HPC) 109 % of control

O=N[O-].O=N[O-].[NH-]CC[NH-].[Pt+2]
inactive: dose: 25.0 mg/kg/injection, schedule: Q01DX009 (ip), vehicle: saline with Tween-80 95 % of control | [3] 100 % of control | [4] 95 % of control

Oc1c(Cl)c(Cl)c2ncccc2c1Cl
inactive: [14] 102 % of control | [15] 107 % of control | [16] 110 % of control

c1ccc2c(CC3=NCCN3)noc2c1
inactive: [13] 98 % of control | [17] 105 % of control | [12] 103 % of control and 107 % of control

CCOc1c(N=Nc2cccc(Cl)c2)c(C)nn1C(=S)SC
inactive: dose: 60.0 mg/kg/injection, schedule: Q01DX005 (ip), vehicle: Klucel + Tween-80 94 % of control | dose: 120.0 mg/kg/injection, schedule: Q01DX005 (ip), vehicle: Klucel + Tween-80 98 % of control | dose: 240.0 mg/kg/injection, schedule: Q01DX005 (ip), vehicle: Klucel + Tween-80 99 % of control

O=C1C(=C2C=CN(CCN3CCCCC3)C=C2)C(=O)c2ccccc21
inactive: [9] 100 % of control | [10] 100 % of control | [11] 87 % of control

Cc1cc(N(CCCl)CCCl)ccc1NC(=O)c1ccccc1
inactive: [5] 109 % of control | [6] 118 % of control | [7] 116 % of control

COC1C=CC(=O)C(C)(c2ccc(S(=O)(=O)c3ccccc3)cc2)O1 (stereo not drawn)
inactive: dose: 60.0 mg/kg/injection, schedule: Q01DX005 (ip), vehicle: saline with Tween-80 104 % of control | dose: 120.0 mg/kg/injection, schedule: Q01DX005 (ip), vehicle: saline with Tween-80 95 % of control | dose: 240.0 mg/kg/injection, schedule: Q01DX005 (ip), vehicle: saline with Tween-80 106 % of control

CCCCCCCCCCCC(=O)NC(=S)Nc1ccccc1C(=O)OC
inactive: [17] 105 % of control | [12] 99 % of control

O=c1[nH]cc([N+](=O)[O-])c(=O)[nH]1
inactive: [8] 94 % of control | [9] 99 % of control | [10] 95 % of control | dose: 100.0 mg/kg/injection, schedule: Q01DX009 (ip), vehicle: distilled water + Tween-80 102 % of control | [11] 107 % of control | dose: 200.0 mg/kg/injection, schedule: Q01DX009 (ip), vehicle: distilled water + Tween-80 100 % of control | dose: 400.0 mg/kg/injection, schedule: Q01DX009 (ip), vehicle: distilled water + Tween-80 99 % of control

N#CNC(=Nc1ccccc1)[N](C#N)[Sn]([c]1ccccc1)([c]1ccccc1)[c]1ccccc1
inactive: dose: 1.56 mg/kg/injection, schedule: Q01DX005 (ip), vehicle: Klucel (hydroxypropylcellulose) (HPC) 100 % of control | dose: 3.12 mg/kg/injection, schedule: Q01DX005 (ip), vehicle: Klucel (hydroxypropylcellulose) (HPC) 102 % of control | dose: 6.25 mg/kg/injection, schedule: Q01DX005 (ip), vehicle: Klucel (hydroxypropylcellulose) (HPC) 103 % of control and 97 % of control

CC1(c2ccccc2)CCOCO1 (stereo not drawn)
inactive: [14] 106 % of control | [15] 98 % of control | [16] 104 % of control
